Consider 28 molecules from ChEMBL document CHEMBL3832761, “MMV Pathogen Box Bioactivity Data” (2017).

The test system of assay [1] is Trypanosoma cruzi. Nature of the assay: AntiTrypanosoma cruzi activity IC50 (uM). The assay is classed as functional, organism-based.
The subject of assay [2] is Trypanosoma brucei. Nature of the assay: AntiTrypanosoma brucei activity T. b. brucei IC50 (uM). The assay is classed as functional, organism-based.
The subject of assay [3] is Trypanosoma brucei. The experiment in a line: AntiTrypanosoma brucei activity T. b. rhodesiense IC50 (uM). The assay is classed as functional, organism-based.
For assay [4], the system named is Leishmania infantum. The experiment in a line: AntiLeishmania activity L. infantum (macrophages) IC50 (uM). It is filed as functional, organism-based.
In assay [5] the test system is MRC5. The experiment in a line: MRC5 CC50 (uM) Cytotoxicity. The following applies: Homo sapiens. It is filed as functional.
Assay [6] can be described thus: PMM CC50 (uM) Cytotoxicity. Conditions: Macrophage. The assay is classed as functional.
Assay [7] deals with Plasmodium falciparum. Nature of the assay: Antimalarial activity: Asexual Blood Stage Plasmodium falciparum 3D7 IC50 (uM). The assay is classed as functional, organism-based.
The test system of assay [8] is Plasmodium falciparum. Nature of the assay: Antimalarial activity: Asexual Blood Stage Plasmodium falciparum Dd2 IC50 (uM). The assay is classed as functional, organism-based.
Assay [9] has as its system Plasmodium falciparum. The experiment in a line: Antimalarial activity: Asexual Blood Stage Plasmodium falciparum W2 IC50 (uM). It is filed as functional, organism-based.
Assay [10] relates to Plasmodium berghei. Nature of the assay: Antimalarial activity: Liver Stage Plasmodium berghei sporozoite Luciferase assay: inhibition at 10 uM (%). The assay is classed as functional.
The test system of assay [11] is Plasmodium falciparum. The experiment in a line: Antimalarial activity: Gametocytes Plasmodium falciparum NF54 Gametocytes Stage V: inhibition at 10 uM (%). The assay is classed as functional.
The test system of assay [12] is HepG2. The experiment in a line: HepG2 inhibition at 10 uM (%) Cytotoxicity. The assay is classed as functional. Conditions: Homo sapiens.
Assay [13] has as its system HepG2. Nature of the assay: Cytotoxicity data HepG2 CC20 (uM). It is filed as functional.

In general, IC50 refers to the concentration that inhibits the measured activity by half. The CC50 is the concentration giving 50% cytotoxicity. A low value points to greater toxicity to the cells. As a reminder, the Inhibition is the percentage by which the read-out fell short of the control. As a reminder, the inhibition is the share of the control response that was lost under treatment. A lower inhibition goes with a weak effect.

For the molecule `CC1CCCCN1C(=O)NCCc1coc(-c2ccc(F)cc2)n1` (stereo unspecified), the IC50 in assay [1] was 0.48 µM; in [2] it was 0.13 µM; in assay [3] it was 0.11 µM; in assay [4], greater than 64 µM. Moreover, the CC50 in assay [5] and in assay [6] was greater than 64 µM each time.
On to `Cc1ccc(S(=O)(=O)Nc2ccc(CN3CCN(C(=O)c4cccc(C#N)c4)CC3)cc2)cc1`, for which the IC50 in assay [1] was 1.2 µM; in assay [2] it was 0.14 µM; in assay [3], 0.12 µM; in assay [4], 32 µM. The CC50 in [5] and in assay [6] was greater than 64 µM throughout.
Consider `CCN(CC)S(=O)(=O)c1ccc(C(=O)Nc2cc(C)nn2-c2nc(C)c(C)c(=O)[nH]2)cc1`, for which the IC50 in assay [1] worked out at 1.96 µM; in assay [2], 5.3 µM; in [3], 1.7 µM; in [4] it was 6.87 µM. The values for the CC50 in assay [5] and in [6] were 6.6 µM and greater than 64 µM, respectively.
Consider `COc1ccc(C2=NN(C3CCCCCC3)C(=O)[C@@H]3CC=CC[C@H]23)cc1OCCCCOc1ccc(-c2nnn[nH]2)cc1`, for which, in assay [2], half-maximal inhibition (IC50) required 0.02 µM.
In the case of `C[C@H](c1ccc2c(c1)CCCC2)N(C)c1ncc2c(N)nc(N)nc2n1`, in assay [4], half-maximal inhibition (IC50) required 0.47 µM. Also, the figures for the CC50 in assay [5] and in [6] were 7.1 µM and 8 µM, respectively.
`CCC(=O)Nc1ccccc1C(=O)Nc1ccccn1`: the IC50 was greater than 64 µM in [1], 2.46 µM in assay [2], 1.31 µM in [3] and greater than 64 µM in assay [4]. The 50% cytotoxic concentration (CC50) in assay [5] and in assay [6] was greater than 64 µM throughout.
With `Cc1nn2c(O)c3c(nc2c1-c1ccc(F)cc1)CCCC3`, the IC50 turned out to be 2.21 µM in assay [1], 1.94 µM in assay [2], 0.48 µM in assay [3] and 50.4 µM in assay [4]. Also, the CC50 in assay [5] and in assay [6] was greater than 64 µM in each case.
For `CO/C=C(/C(=O)OC)c1ccccc1Oc1cc(Oc2ccccc2C#N)ncn1` [AZOXYSTROBIN], the IC50 in assay [7] is 0.05 µM; in assay [8], 0.09 µM; in assay [9], 0.03 µM. Moreover, the Inhibition came out at 97% in assay [10] and 32.5% in [11]. Besides, the inhibition at 10 µM in [12] is 37%. For the same molecule, in assay [5], the CC50 is greater than 28 µM.
With `CNC(=O)C1Cc2ccccc2N1C(=O)Cc1ccc(F)cc1` (stereo unspecified), the IC50 in assay [1] is greater than 64 µM; in [2], 0.49 µM; in assay [3] it was 0.38 µM; in [4], greater than 64 µM. The CC50 in assay [5] and in assay [6] was greater than 64 µM in each case.
Consider `CC(c1cc(Cl)cc(Cl)c1)N(C)c1ncc2c(N)nc(N)nc2n1` (stereo unspecified), for which half-maximal inhibition in assay [4] (IC50) required 0.54 µM. Besides, the figures for the CC50 in assay [5] and in [6] were 5.9 µM and greater than 32 µM, respectively.
`O=C([C@@H](c1ccc(Cl)cc1)c1cccnc1)N1CCN(c2ccc(C(F)(F)F)cc2)CC1` displayed an IC50 in assay [1] of 0.01 µM. Further, in [13], the CC20 is 19 µM.
With `CC(=O)Nc1ccc(-c2noc(CC3CCCN(Cc4cccc(F)c4C)C3)n2)cc1` (stereo unspecified), the IC50 in [1] came out at 2.8 µM; in assay [2] it was 32.3 µM; in assay [3] it was 25.1 µM; in assay [4], 1.59 µM. In addition, the half-maximal cytotoxic concentration (CC50) in assay [5] was 29.4 µM; in assay [6], greater than 64 µM.
For the molecule `COc1ccc(S(=O)(=O)Nc2ccc(CN3CCN(C(=O)c4cccc(C#N)c4)CC3)cc2)cc1`, the IC50 in assay [1] came to 2.7 µM; in assay [2], 0.5 µM; in assay [3], 0.4 µM; in assay [4], 52.2 µM. Moreover, the CC50 in assay [5] and in [6] was greater than 64 µM each time.
In turn, `CNc1cc(C)nc(C2CN(C(=O)c3n[nH]c4ccccc34)CCO2)c1` (stereo unspecified) yielded an IC50 in assay [1] of 3.89 µM. Moreover, the CC50 in assay [5] is greater than 64 µM.
With `O=C(NCc1nnc2n1CCCCC2)c1ccc(-c2ccc(F)cc2)o1`, the IC50 in [1] was 2.07 µM; in assay [2], 0.1 µM; in assay [3] it was 0.13 µM; in [4] it was greater than 64 µM. Besides, the CC50 in assay [5] and in [6] was greater than 64 µM throughout.
In the case of `CCOC(=O)c1noc(N)c1-c1ccccc1`, the IC50 in assay [1] was greater than 64 µM; in assay [2] it was 1.22 µM; in assay [3], 0.46 µM; in assay [4] it was greater than 64 µM. Also, the CC50 in [5] and in assay [6] was greater than 64 µM throughout.
In the case of `Cc1nn2c(=O)c3c([nH]c2c1-c1ccc(Cl)cc1)CCCC3`, the IC50 in [1] is 0.71 µM; in [2], 0.49 µM; in assay [3], 0.14 µM; in [4], 44 µM. Also, the figures for the CC50 in assay [5] and in [6] were greater than 64 µM and 48 µM, respectively.
As to `Clc1ccc(CN2CCN(C3=NCCN3)CC2)cc1Cl`, the IC50 in assay [1] was 6.57 µM; in assay [2], 31.6 µM; in assay [3] it was 30.1 µM; in [4], greater than 64 µM. Moreover, the CC50 in [5] and in assay [6] was greater than 64 µM in each case.
Turning to `Cc1noc(C)c1COc1cccc(C(=O)N=c2[nH]cccc2C)c1`, the IC50 in assay [1] was greater than 64 µM; in [2], 2.07 µM; in assay [3], 0.65 µM; in assay [4], greater than 64 µM. Further, the CC50 in assay [5] and in assay [6] was greater than 64 µM in each case.
Consider `CNCCC(Oc1ccc(C(F)(F)F)cc1)c1ccccc1` (stereo unspecified) [FLUOXETINE], for which the CC20 in [13] came out at 8.97 µM. The CC50 in assay [5] was 11.4 µM; in [6], 16 µM.
For the molecule `O=C(NCCc1ccn(-c2ccccc2)n1)C1CCCCC1`, the IC50 in [1] is 0.73 µM; in assay [2], 0.15 µM; in assay [3], less than 0.13 µM; in [4], greater than 64 µM. Moreover, the CC50 in [5] and in assay [6] was greater than 64 µM in each case.
The molecule `FC(F)(F)c1ccc(N(c2cccnc2)C2CCN(c3ccc(C(F)(F)F)cn3)CC2)cc1` had an IC50 in [1] of 0.01 µM. In [13], the CC20 was determined as 25.8 µM.
With `COc1ccc(C2=NN(C3CCCCCC3)C(=O)C2(C)C)cc1OCCCCOc1ccc(-c2nn[nH]n2)cc1`, half-maximal inhibition in assay [2] (IC50) required 0.79 µM.
For the molecule `CS(=O)(=O)c1ccccc1C(=O)N(Cc1ccccc1)c1ccccc1`, the IC50 is 35.4 µM in assay [1], 0.56 µM in assay [2], 0.4 µM in assay [3] and greater than 64 µM in assay [4]. Also, the CC50 in assay [5] and in [6] was greater than 64 µM each time.
Turning to `CN1CCCN(C(c2ccccc2)c2ccc(Cl)cc2)CC1` (stereo unspecified) [HOMOCHLORCYCLIZINE], the IC50 in assay [1] stood at 9.44 µM; in [2], 4.64 µM; in assay [3] it was 1.94 µM; in assay [4], 36.3 µM. Besides, the CC50 in [5] was 31.8 µM; in [6] it was 48 µM.
Molecule `COc1ccc(Oc2ccc([C@@H](C)N(C)c3ncc4c(N)nc(N)nc4n3)cc2)cc1` registered an IC50 in assay [4] of 0.03 µM. Further, the CC50 in assay [5] came to 5.4 µM; in assay [6], 4 µM.
In the case of `NCCN(C(=O)c1ccc(Cl)cc1Cl)c1ccc(OCc2ccc(Cl)cc2)cc1`, the IC50 in [1] is 0.62 µM; in assay [2] it was less than 0.13 µM; in assay [3], less than 0.13 µM; in [4], 0.63 µM. In addition, the results for the CC50 in assay [5] and in assay [6] were 4 µM and 1 µM, respectively.
For `COc1ccc(Cl)cc1NC(=O)CN(C)C(=O)c1cnn(-c2ccccc2)n1`, the IC50 in assay [7] was determined as 0.24 µM; in assay [8] it was 0.24 µM; in assay [9], 0.29 µM. Further, the Inhibition amounted to 48% in assay [10] and 60% in assay [11]. In assay [13], this molecule came in with a CC20 of 72.2 µM. Moreover, the inhibition at 10 µM in [12] is 6%.
